Source: the supplement of paper PMC10307832

Tests used:
Assay in all cases: relative viability (nuclei count vs DMSO), 5 days (fraction); higher = more cells survive
[1] = compound: CC1=C(C(=NN1)C)CC2=C(C3=C(S2)N(C(=O)N(C3=O)C)CC(C)C)C(=O)N4C[C@@H](CO4)O + C[C@]1(O)C[C@@H](c2nc(-c3ccc4ccc(-c5ccccc5)nc4c3)c3c(N)nccn32)C1 [Linsitinib] (partner 1 µM)
How it was run: (§1)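 Five library-drug doses in √10 steps were combined with a fixed anchor-drug dose, or a single drug was given alone, by pin tool to lung cancer cell lines in 1536-well plates the day after seeding. Nuclei were stained and counted after 5 days. Relative viability is the nuclei count in treated wells over that in vehicle wells, taken as the median of duplicate plates.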

IDH-C35 + Palbociclib = compound: Cc1ccccc1C(C(=O)NC1CCCCC1)N(C(=O)Cn1ccnc1C)c1cccc(F)c1 [IDH-C35] + CC(=O)c1c(C)c2cnc(Nc3ccc(N4CCNCC4)cn3)nc2n(C2CCCC2)c1=O [Palbociclib] (partner 0.5 µM)
How it was run: as §1

IDH-C35 + Dasatinib = compound: Cc1ccccc1C(C(=O)NC1CCCCC1)N(C(=O)Cn1ccnc1C)c1cccc(F)c1 [IDH-C35] + Cc1nc(Nc2ncc(C(=O)Nc3c(C)cccc3Cl)s2)cc(N2CCN(CCO)CC2)n1 [Dasatinib] (partner 0.075 µM)
How it was run: as §1

[2] = compound: CC1=C(C(=NN1)C)CC2=C(C3=C(S2)N(C(=O)N(C3=O)C)CC(C)C)C(=O)N4C[C@@H](CO4)O + CC(C)C[C@H](NC(=O)[C@H](Cc1ccccc1)NC(=O)c1cnccn1)B(O)O [Bortezomib] (partner 0.002 µM)
How it was run: as §1

Row | Cell Line | relative viability ([1]; first compound 0.0025 µM) | relative viability ([1]; first compound 0.007906 µM) | relative viability ([1]; first compound 0.025 µM) | relative viability ([1]; first compound 0.07906 µM) | relative viability ([1]; first compound 0.25 µM) | relative viability (IDH-C35 + Palbociclib; first compound 0.08 µM) | relative viability (IDH-C35 + Palbociclib; first compound 0.253 µM) | relative viability (IDH-C35 + Palbociclib; first compound 0.8 µM) | relative viability (IDH-C35 + Palbociclib; first compound 2.53 µM) | relative viability (IDH-C35 + Palbociclib; first compound 8 µM) | relative viability (IDH-C35 + Dasatinib; first compound 0.08 µM) | relative viability (IDH-C35 + Dasatinib; first compound 0.253 µM) | relative viability (IDH-C35 + Dasatinib; first compound 0.8 µM) | relative viability (IDH-C35 + Dasatinib; first compound 2.53 µM) | relative viability (IDH-C35 + Dasatinib; first compound 8 µM) | relative viability ([2]; first compound 0.0025 µM) | relative viability ([2]; first compound 0.007906 µM) | relative viability ([2]; first compound 0.025 µM) | relative viability ([2]; first compound 0.07906 µM) | relative viability ([2]; first compound 0.25 µM)
1 | NCI-H1395 | 0.965 | 0.902 | 0.917 | 0.988 | 0.89 | 0.626 | 0.605 | 0.612 | 0.601 | 0.598 | 0.416 | 0.376 | 0.4 | 0.41 | 0.381 | – | – | – | – | –
2 | NCI-H1563 | 1.15 | 1.24 | 1.26 | 1.23 | 1.23 | – | – | – | – | – | 0.455 | 0.472 | 0.446 | 0.487 | 0.465 | 0.943 | 0.938 | 0.938 | 0.811 | 0.818
3 | NCI-H1623 | – | – | – | – | – | – | – | – | – | – | 0.475 | 0.504 | 0.534 | 0.535 | 0.474 | – | – | – | – | –
4 | NCI-H1648 | – | – | – | – | – | – | 0.271 | 0.322 | 0.246 | 0.285 | – | – | – | – | – | – | – | – | – | –
5 | NCI-H1650 | – | – | – | – | – | 0.381 | 0.329 | 0.355 | 0.422 | 0.4 | 0.328 | 0.35 | 0.328 | 0.269 | 0.304 | 0.218 | 0.203 | 0.234 | 0.17 | 0.189
6 | NCI-H1703 | 0.691 | 0.253 | 0.638 | 0.448 | 0.804 | – | – | – | – | – | – | – | – | – | – | 0.265 | 0.223 | 0.221 | 0.3 | 0.256
7 | NCI-H1793 | 0.726 | 0.868 | 0.834 | 0.66 | 0.926 | 0.273 | 0.303 | 0.356 | 0.327 | 0.322 | 0.409 | 0.423 | 0.364 | – | 0.414 | – | – | – | – | –
8 | NCI-H1944 | 1.13 | 1.1 | 1.27 | 1.15 | 1.07 | 0.376 | 0.345 | 0.338 | 0.317 | 0.323 | 0.233 | 0.228 | 0.211 | 0.228 | 0.211 | – | – | – | – | –
9 | NCI-H2170 | – | – | – | – | – | 0.382 | 0.377 | 0.425 | 0.385 | 0.379 | 0.542 | 0.594 | 0.594 | 0.678 | 0.538 | – | – | – | – | –
10 | NCI-H2342 | – | – | – | – | – | 0.578 | 0.535 | 0.475 | 0.526 | 0.662 | 0.308 | 0.381 | 0.32 | 0.374 | 0.299 | – | – | – | – | –
11 | SK-MES-1 | 1.05 | 1.03 | 1.04 | 1.15 | 1.14 | 0.307 | 0.286 | 0.301 | 0.317 | 0.271 | 0.433 | 0.353 | 0.424 | 0.355 | 0.336 | – | – | – | – | –
12 | SW 900 | – | – | – | – | – | 0.487 | 0.568 | – | 0.522 | 0.506 | 0.534 | 0.764 | 0.478 | 0.578 | 0.552 | – | – | – | – | –
